Values of other authors as cited in patent US20230038462A1, “TRANSDERMAL PENETRANT FORMULATIONS CONTAINING CANNABIDIOL” (DYVE BIOSCIENCES, INC., priority 2019, published 2023).

## C=C(C)[C@@H]1CCC(C)=C[C@H]1c1c(O)cc(CCCCC)cc1O [Cannabidiol]
  side effects of long-term use: somnolence, decreased appetite, diarrhea, fatigue, malaise, weakness, and sleeping problems
